Results from US7666891B2, “Heterocyclic antiviral compounds” (Roche Palo Alto LLC, priority 2004, dated 2010).
Like-named read-outs stand apart in the source and are kept apart here.

Tests used:
[1] = Determination of pharmacokinetic parameters in rats after oral gavage; format: in vivo, rat; settings: female rats; for AUC (area under concentration vs. time curve, 0–24 h): parent triazolone measured in plasma; for concentration at 2 h / concentration at 6 h: rat, plasma; for concentration at 2 h: read-out: Cp (2 h) plasma concentration; for concentration at 6 h: read-out: Cp (6 h) plasma concentration
Protocol: Intact female rats weighing 200-250 g were used. Groups of three or five rats were used for each dose level of an experimental compound and one rat was used as a vehicle control. Animals were allowed normal access to chow and water throughout the experiment. The test substance was formulated as an aqueous suspension containing hydroxypropyl cellulose, polysorbate 80 and benzyl alcohol adjusted to pH 3.5 with HCl or NaOH at a dose equivalent to (0.127 mmol) and was administered orally by gavage. A blood sample (0.3 mL) was collected from the treated rats at, 2, 4, 6 and 8 h from the orbital sinus and at 24 h by cardiac puncture. A sample of at least 0.3 mL of blood was withdrawn from the untreated animals 3 h after dosing. Potassium oxalate/NaF and lithium heparin were added to the samples which were stored on ice during sampling procedure. The samples were spun in a refrigerated centrifuge at […] as soon as possible and the plasma samples were stored −20° C. immediately after centrifugation and later transferred to a −80° C. freezer until analysis. Aliquots of plasma (0.05 mL) were mixed with 0.35 mL of an internal standard (and 0.05 mL of acetonitrile containing 0.1% formic acid. A set of calibration standards was prepared by mixing 0.05-mL aliquots of plasma from untreated rats with 0.05-mL aliquots of standard solution in acetonitrile containing 0.1% formic acid and 0.35-mL aliquots of the internal standard in acetonitrile containing 0.1% formic acid). Each plasma sample and calibration standard was vortexed thoroughly and then centrifuged (3000×g) at 4° C. for 20 min to precipitate the protein. Each supernatant from centrifugation was transferred into a separate injection vial for LC/MS/MS analysis.

## Cn1c(Cc2ccc(Cl)c(Oc3cc(C#N)cc(C(F)F)c3)c2F)n[nH]c1=O [parent]
[1]; dose 152 mg/kg (equimolar to I-5 200 mg/kg)
  AUC (area under concentration vs. time curve, 0–24 h): 68800 ng·h/mL
[1]; dose 530 mg/kg (equimolar to I-5 700 mg/kg)
  AUC (area under concentration vs. time curve, 0–24 h): 85400 ng·h/mL
[1]; dose 152 mg/kg
  concentration at 2 h: 2740 ng/mL
  concentration at 6 h: 5020 ng/mL
[1]; dose 530 mg/kg
  concentration at 2 h: 3180 ng/mL
  concentration at 6 h: 5970 ng/mL

## Cn1c(Cc2ccc(Cl)c(Oc3cc(Cl)cc(C#N)c3)c2F)nn(CO)c1=O [Compound I-1]
other
  melting point: 145.8 to 149.5 °C

## Cn1c(Cc2ccc(Cl)c(Oc3cc(C#N)cc(C(F)F)c3)c2F)nn(COC(=O)CCC(=O)O)c1=O [Compound I-5, Succinic acid mono-{3-[4-chloro-3-(3-cyano-5-difluoromethyl-phenoxy)-2-fluoro-benzyl]-4-methyl-5-oxo-4,5-dihydro-[1,2,4]triazol-1-ylmethyl}ester]
other
  melting point: 150.5 to 151.1 °C

## Cc1ccc(Cc2nn(COC(=O)CCC(=O)O)c(=O)n2C)c(F)c1Oc1cc(C#N)cc(C(F)F)c1 [Compound I-7, Succinic acid mono-{3-[3-(3-cyano-5-difluoromethyl-phenoxy)-2-fluoro-4-methyl-benzyl]-4-methyl-5-oxo-4,5-dihydro-[1,2,4]triazol-1-ylmethyl}ester]
other
  melting point: 139.2 to 140.5 °C

## CCc1ccc(Cc2nn(COC(=O)CCC(=O)O)c(=O)n2C)c(F)c1Oc1cc(C#N)cc(C(F)F)c1 [Compound I-11, succinic acid mono-{3-[3-(3-cyano-5-difluoromethyl-phenoxy)-4-ethyl-2-fluoro-benzyl]-4-methyl-5-oxo-4,5-dihydro-[1,2,4]triazol-1-ylmethyl}ester]
other
  melting point: 152.2 to 153.5 °C

## Cn1c(Cc2ccc(Cl)c(Oc3cc(C#N)cc(C#N)c3)c2F)nn(CO)c1=O [Compound I-3]
other
  melting point: 158.9 to 162.2 °C

## Cn1c(Cc2ccc(Br)c(Oc3cc(C#N)cc(C(F)F)c3)c2F)nn(COC(=O)CCC(=O)O)c1=O [Compound I-9, Succinic acid mono-{3-[4-bromo-3-(3-cyano-5-difluoromethyl-phenoxy)-2-fluoro-benzyl]-4-methyl-5-oxo-4,5-dihydro-[1,2,4]triazol-1-ylmethyl}ester]
other
  melting point: 156.7 to 158 °C

## Cn1c(Cc2ccc(Cl)c(Oc3cc(C#N)cc(C#N)c3)c2F)nn(COC(=O)CCC(=O)O)c1=O [Compound I-4, Succinic acid mono-{3-[4-chloro-3-(3,5-dicyano-phenoxy)-2-fluoro-benzyl]-4-methyl-5-oxo-4,5-dihydro-[1,2,4]triazol-1-ylmethyl}ester]
other
  melting point: 141.6 to 143.3 °C

## Cn1c(Cc2ccc(Cl)c(Oc3cc(Cl)cc(C#N)c3)c2F)nn(COC(=O)CCC(=O)O)c1=O [Compound I-2, Succinic acid mono-{3-[4-chloro-3-(3-chloro-5-cyano-phenoxy)-2-fluoro-benzyl]-4-methyl-5-oxo-4,5-dihydro-[1,2,4]triazol-1-ylmethyl}ester]
other
  melting point: 136.6 to 141.9 °C
